Legend:
Type in all cases: cell-based, murine
[1] = system: FOXM1; assay: Western blot of FOXM1 levels in GT1-7 CARY cells; details: relative to p84 loading control, FIG. 3C
Text: Western Blot. Cell lysates was separated on a 6% SDS page gel and transferred to a nitrocellulose membrane. The membrane was blocked for one hour in 5% skim milk dissolved in TBS-T and probed with the following antibodies ([…]): FoxM1 (rabbit, GeneTex), AR: 441 (mouse, Santa Cruz Biotechnology), β-catenin (rabbit 9562, Cell Signaling Technology), p84 (mouse, GeneTex) and actin (mouse, Santa Cruz Biotechnology). Horse radish peroxidase linked secondary antibodies were used along with ECL reagents for visualization. Western blots were quantified using Quantity One analysis software (BioRad).
It has been previously reported that thiostrepton causes decreased levels of FOXM1. Hegde et al, Nat Chem, 3(9):725-31 (2011); Gartel, Front Oncol, 3:150 (2013). […] The nuclear association between FOXM1 and β-catenin increases the transcriptional activity of both factors. Zhang et al, Cancer Cell, 20(4):427-42 (2011). β-catenin is a key AR coactivator in a variety of cells. Yang, J Biol Chem, 277(13):11336-44 (2002); Truica et al, Cancer Res, 60(17):4709-13 (2000). The inventors believed that thiostrepton could inhibit AR activity by limiting access to nuclear β-catenin via FOXM1 depletion. […] As expected, control actin protein was observed primarily in cytoplasmic fraction.

[2] = system: AR; assay: Androgen-responsive luciferase reporter assay in GT1-7 cells; details: GT1-7 cells, treated overnight, FIG. 2A
Description: Luciferase Reporter Assay. […] The following day, cells and drugs were distributed to 96-well plates. 24 hours later, luciferase activity was assessed by a dual luciferase assay kit (Promega) on the Tecan plate reader. Samples were run in quadruplicates and a Student's t test was performed to determine significance, where p<0.05 was considered significant.
In order to identify potential cell-type selective AR modulators, the FRET-based assay of AR conformation change was utilized. AR signaling is a complex process involving many steps in addition to ligand binding. One crucial step is the ligand-induced conformational change of AR, which brings the carboxy (C)- and amino (N)-termini of the receptor together. Full length AR with cyan fluorescent protein (CFP) or yellow fluorescent protein (YFP) fused to either end (CARY) produces a FRET signal upon AR conformation change (FIG. 1A). This produces an accurate and quantifiable read-out of AR activity. […] Cells were plated in 96 wells and treated with library compounds 24 hours prior to accessing conformational changes by FRET. […] Candidate hits were then further evaluated by dose response. […] In addition to FRET, AR transcriptional activity was also assessed in several cell lines by transfecting cells with a luciferase reporter driven by the human PSA promoter.

[3] = system: AR; assay: Androgen-responsive luciferase reporter assay in C2C12 cells; details: treated overnight, FIG. 2A
Text: Luciferase Reporter Assay. Cells were transfected using Lipofectamine Plus (Invitrogen) with a normalization plasmid (pRL-SV40, Promega) and an androgen responsive plasmid (MMTV-luciferase or PSA-luciferase) as described in Jones et al, ACS Chem Biol, 3(7):412-8 (2008), and, where indicated, with an shRNA plasmid targeting FOXM1 (adapted for mouse FOXM1 sequence targeting) a scrambled control shRNA plasmid, or ARQ24 or ARQ65 plasmids. Christensen et al, PLoS One, 8(1):e54556 (2013). The following day, cells and drugs were distributed to 96-well plates. 24 hours later, luciferase activity was assessed by a dual luciferase assay kit (Promega) on the Tecan plate reader. Samples were run in quadruplicates and a Student's t test was performed to determine significance, where p<0.05 was considered significant.
In order to identify potential cell-type selective AR modulators, the FRET-based assay of AR conformation change was utilized. AR signaling is a complex process involving many steps in addition to ligand binding. One crucial step is the ligand-induced conformational change of AR, which brings the carboxy (C)- and amino (N)-termini of the receptor together. Full length AR with cyan fluorescent protein (CFP) or yellow fluorescent protein (YFP) fused to either end (CARY) produces a FRET signal upon AR conformation change (FIG. 1A). This produces an accurate and quantifiable read-out of AR activity. Jones et al, ACS Chem Biol, 3(7):412-8 (2008). Because the interest was in the potential of neuron selective AR inhibitors for treatment of SBMA, the initial screen was carried out in CARY-transfected GT1-7 cells, which are a mouse model of hypothalamic neurons. Liposits et al, Endocrinology, 129(3):1575-83 (1991). Cells were plated in 96 wells and treated with library compounds 24 hours prior to accessing conformational changes by FRET. […] Candidate hits were then further evaluated by dose response. […] In addition to FRET, AR transcriptional activity was also assessed in several cell lines by transfecting cells with a luciferase reporter driven by the human PSA promoter. […]

Row | Structure (SMILES) | FOXM1 levels (Western blot) [1] | inhibition of AR transcriptional activity (luciferase) [2] | inhibition of AR transcriptional activity (luciferase) [3]
1 | C[C@]12CCC(=O)C[C@@H]1CC[C@@H]1[C@@H]2CC[C@]2(C)[C@@H](O)CC[C@@H]12 [DHT, dihydrotestosterone] | increased |  | 
2 | Nc1c(C(=O)Nc2ccc(F)cc2)sc2nc(-c3cccs3)cc(C(F)(F)F)c12 [FDI-6] |  | inhibited AR activity | not C2C12 cells

— patent publication US11167007B2, “FOXM1 modulators and uses thereof” (City of Hope, priority 2016, dated 2021)
